Experimental data reported in PMC10004417, “Screening of Potential α-Glucosidase Inhibitors from the Roots and Rhizomes of Panax Ginseng by Affinity Ultrafiltration Screening Coupled with UPLC-ESI-Orbitrap-MS Method” (Molecules, 2023).
Read-outs that look alike come from different tables or passages of the source. One block for each compound: values may come before it.

Columns and labels:
Test in all cases: pNPG enzyme inhibition assay, % inhibition at […]; also affinity ultrafiltration LC-MS (PAR […])
Type in all cases: biochemical
Conditions in all cases: read-out: Inhibitory (%)
α-Glucosidase [1] = biological target: T1, α-Glucosidase (Saccharomyces cerevisiae, UniProt P53341)
T1 construct: gene MAL12

α-Glucosidase [2] = biological target: T1, α-Glucosidase; remark: listed apart in the source
α-Glucosidase [3] = biological target: T1, α-Glucosidase; remark: listed apart in the source

T1 sequence (P53341 whole entry): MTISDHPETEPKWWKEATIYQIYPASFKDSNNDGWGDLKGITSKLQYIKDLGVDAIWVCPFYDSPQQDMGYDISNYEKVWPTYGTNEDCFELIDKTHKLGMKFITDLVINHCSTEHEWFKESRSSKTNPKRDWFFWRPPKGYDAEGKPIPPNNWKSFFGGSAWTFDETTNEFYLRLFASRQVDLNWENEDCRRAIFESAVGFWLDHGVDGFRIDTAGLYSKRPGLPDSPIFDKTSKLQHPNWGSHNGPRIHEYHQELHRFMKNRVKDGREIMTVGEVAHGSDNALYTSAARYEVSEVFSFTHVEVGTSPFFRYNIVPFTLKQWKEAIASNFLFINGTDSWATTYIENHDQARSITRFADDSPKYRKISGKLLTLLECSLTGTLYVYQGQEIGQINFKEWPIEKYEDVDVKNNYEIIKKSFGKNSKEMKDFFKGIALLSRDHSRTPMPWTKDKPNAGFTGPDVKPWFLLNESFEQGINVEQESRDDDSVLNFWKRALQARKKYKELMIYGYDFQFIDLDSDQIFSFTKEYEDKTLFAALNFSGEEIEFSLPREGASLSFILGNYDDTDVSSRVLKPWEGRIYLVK

SMILES: C=C(CCC=C(C)C)[C@H]1CC[C@]2(C)C1[C@H](O)CC1[C@@]3(C)CC[C@H](O)C(C)(C)C3[C@@H](OC3O[C@H](CO)[C@@H](O)[C@H](O)[C@H]3OC3O[C@@H](C)[C@H](O)[C@@H](O)[C@H]3O)C[C@]12C (stereo partly drawn) [R3, ginsenoside Rg6]
inhibition at 40000 µM (α-Glucosidase [1]): 27.4%

inhibition at 40000 µM (α-Glucosidase [2]): 20.2%
SMILES: CC1(C)CC[C@]2(C(=O)O[C@@H]3O[C@H](CO)[C@@H](O)[C@H](O)[C@H]3O)CC[C@]3(C)C(=CC[C@@H]4[C@@]5(C)CC[C@H](O[C@@H]6O[C@H](C(=O)O)[C@@H](O)[C@H](O)[C@H]6O[C@@H]6O[C@H](CO)[C@@H](O)[C@H](O)[C@H]6O)C(C)(C)[C@@H]5CC[C@]43C)[C@@H]2C1 [R8, ginsenoside Ro]

SMILES: CC(C)=CCC[C@](C)(OC1O[C@H](COC2O[C@@H](CO)[C@H](O)[C@H]2OC2OC[C@@H](O)[C@H](O)[C@H]2O)[C@@H](O)[C@H](O)[C@H]1O)C1CC[C@]2(C)C1[C@H](O)CC1[C@@]3(C)CC[C@H](OC4O[C@H](CO)[C@@H](O)[C@H](O)[C@H]4OC4O[C@H](CO)[C@@H](O)[C@H](O)[C@H]4O)C(C)(C)C3CC[C@]12C (stereo partly drawn) [R11, ginsenoside Ra2]
inhibition at 40000 µM (α-Glucosidase [3]): 29.5%
